Article PMC9408872, “Harmicens, Novel Harmine and Ferrocene Hybrids: Design, Synthesis and Biological Activity” (International Journal of Molecular Sciences, 2022)
Read-outs that look alike come from different tables or passages of the source.

Key:
[1] = system: HCT116 (colorectal carcinoma); assay: MTT cytotoxicity assay, HCT116; format: cell-based, human; details: for IC50: read-out: IC50 HCT116; for SI (HCT116): selectivity index: ratio of IC50 Hek293T to IC50 HCT116
Experimental: (§1) The parent compound harmine, as well as the reference drug 5-fluorouracil, were used as positive controls.
(§2) The experiments were carried out on five human cell lines purchased from American Type Culture Collection (ATCC): HepG2 (hepatocellular carcinoma; ATCC® HB-8065™), SW620 (colorectal adenocarcinoma; ATCC® CCL-227™), HCT116 (colorectal carcinoma; ATCC® CCL-247™), MCF-7 (breast adenocarcinoma; ATCC® HTB-22™), and Hek293T (embryonic kidney cells; ATCC® CRL-3216™). All cell lines were cultured as monolayers and maintained in Dulbecco’s Modified Eagle Medium (DMEM) (Capricorn Scientific, Ebsdorfergrund, Germany) supplemented with 10% fetal bovine serum (FBS) (Capricorn Scientific, Ebsdorfergrund, Germany), 100 U/mL penicillin, and 100 µg/mL streptomycin (Capricorn Scientific, Ebsdorfergrund, Germany) in a humidified atmosphere with 5% CO2 at 37 °C. Cells were seeded in 96-well plates (Corning, Durham, NC, USA) at 5000–7000 cells per well (depending on the cell-doubling time of a specific cell line) in 0.1 mL media and cultured for 24 h. The next day, the medium was aspirated, and cells were treated for 72 h. Only the compounds that led to more than a 50% reduction in mitochondrial metabolic activity at a concentration of 50 µM were selected for further analysis. The following concentrations of selected compounds were used: 25, 10, 5, and 1 µM. Working dilutions were freshly prepared on the day of the testing. A fresh growth medium was added to untreated control cells, which were defined as 100% viable. DMSO (0.13%) in DMEM was considered a negative control. 5-Fluorouracil (5-FU) and harmine were used as positive controls. At the end of treatment, the medium was removed, and cells were incubated for 1 h with 0.5 mg/mL MTT (Abcam, Cambridge, MA, USA) dissolved in serum-deprived DMEM. The MTT-containing medium was then removed, and 0.1 mL isopropanol was added per well to lyse cells and dissolve formazan. The optical density was measured at 570 nm using a microplate reader (VICTOR3, PerkinElmer, Waltham, MA, USA). Each test point was performed in triplicate. The absorbance was directly proportional to the cell viability. The IC50 values (concentration required to decrease viability by 50%) were calculated by using nonlinear regression on the sigmoidal dose–response plots and are expressed as mean ± SD.

[2] = system: Hek293T (embryonic kidney cells); assay: MTT cytotoxicity assay, Hek293T; format: cell-based, human; details: 72 h, read-out: IC50 Hek293T
Experimental: as §1, §2

[3] = system: HepG2 (hepatocellular carcinoma); assay: MTT cytotoxicity assay, HepG2; format: cell-based, human; details: read-out: IC50 HepG2
Experimental: as §1, §2

[4] = system: P. falciparum Dd2 (multidrug-resistant) erythrocytic stages; assay: In vitro drug sensitivity assay (HRP2-ELISA) against erythrocytic stages, PfDd2; format: cell-based; details: for IC50: read-out: IC50 PfDd2
Experimental: (§3) The in vitro activity of harmicens 20–37 against the erythrocytic stages of CQ-sensitive (Pf3D7) and multidrug-resistant (PfDd2) P. falciparum strains was evaluated following a previously described method (Table 1).
(§4) The antiplasmodial activity of harmicens 20–37 was evaluated against two strains of P. falciparum (3D7—CQ-sensitive, Dd2—multidrug-resistant) as previously described using the histidine-rich protein 2 (HRP2) assay. Briefly, 96-well plates were pre-coated with the tested compounds in a three-fold dilution before ring-stage parasites were added to complete the culture medium at a hematocrit of 1.5% and parasitemia of 0.05%. After three days of incubation at 37 °C, 5% CO2, and 5% oxygen, plates were frozen until HRP2-ELISA analysis. All compounds were evaluated in duplicate in at least two independent experiments. The IC50 was determined using a nonlinear regression analysis of log concentration–response curves using the drc-package v0.9.0 of R v2.6.1 (R Foundation, Vienna, Austria).

[5] = system: P. falciparum 3D7 (CQ-sensitive) erythrocytic stages; assay: In vitro drug sensitivity assay (HRP2-ELISA) against erythrocytic stages, Pf3D7; format: cell-based; details: read-out: IC50 Pf3D7
Experimental: as §3, §4

[6] = system: MCF-7 (breast adenocarcinoma); assay: cells; details: for IC50: read-out: IC50 MCF-7; for SI (MCF-7): selectivity index: ratio of IC50 Hek293T to IC50 MCF-7
Experimental: as §1, §2

[7] = system: SW620 (colorectal adenocarcinoma); assay: MTT cytotoxicity assay, SW620; format: cell-based, human; details: read-out: IC50 SW620
Experimental: as §1, §2

[8] = noncancer cell line, MTT, mean ± SD
[9] = multidrug-resistant strain, three days incubation, mean ± SD
[10] = CQ-sensitive strain, three days incubation, mean ± SD
[11] = Plasmodium falciparum, DD2, 72 h

Row | Compound | IC50 ([1]; 72 h, MTT, mean ± SD) | SI (HCT116) [1] | IC50 [2, 8] | IC50 ([3]; 72 h, MTT, mean ± SD) | IC50 [4, 9] | IC50 [5, 10] | IC50 ([6]; 72 h, MTT, mean ± SD) | SI (MCF-7) [6] | IC50 ([7]; 72 h, MTT, mean ± SD) | other results
1 | COc1ccc2c3ccnc(C)c3n(CCn3cc(-[c-]4cccc4)nn3)c2c1.[Fe+2].c1cc[cH-]c1 [Compound 24, 7-Methoxy-1-methyl-9-(2-(4-ferrocenyl-1H-1,2,3-triazol-1-yl)ethyl)-9H-pyrido[3,4-b]indole] | > 50 µM | >1 | > 50 µM | > 50 µM | 2.31 ± 0.29 µM | 1.35 ± 0.28 µM | > 50 µM | >1 | > 50 µM | –
2 | COc1ccc2c3ccnc(C)c3n(CCNC(=O)C[c-]3cccc3)c2c1.[Fe+2].c1cc[cH-]c1 [Compound 37, N-(2-(7-Methoxy-1-methyl-9H-pyrido[3,4-b]indol-9-yl)ethyl)-2-ferrocenylacetamide] | 7.5 ± 0.4 µM | 4.1 | 30.8 ± 2.4 µM | 28 ± 2.5 µM | 1.8 ± 0.35 µM | 0.83 ± 0.23 µM | 13.2 ± 0.5 µM | 2.3 | 9.9 ± 1.1 µM | –
3 | Cc1nc(Cn2cc(-[c-]3cccc3)nn2)cc2c1[nH]c1ccccc12.[Fe+2].c1cc[cH-]c1 [Compound 21, 1-Methyl-3-((4-ferrocenyl-1H-1,2,3-triazol-1-yl)methyl)-9H-pyrido[3,4-b]indole] | 8.3 ± 1.4 µM | >6 | > 50 µM | > 50 µM | 6.06 ± 1.36 µM | 7.14 ± 0.38 µM | 17.7 ± 0.6 µM | >2.8 | 19.7 ± 1.9 µM | –
4 | Cc1nc(-c2cn(C[c-]3cccc3)nn2)cc2c1[nH]c1ccccc12.[Fe+2].c1cc[cH-]c1 [Compound 26, 3-(1-(Ferrocenylmethyl)-1H-1,2,3-triazol-4-yl)-1-methyl-9H-pyrido[3,4-b]indole] | 35.2 ± 4.7 µM | 1.3 | 46.5 ± 1 µM | 12.3 ± 5 µM | 4.02 ± 0.61 µM | 2.63 ± 0.27 µM | 3.7 ± 0.2 µM | 12.6 | 3.8 ± 0.4 µM | activity against MCF-7 relative to 5-FU (fold stronger) [6]: 3–6.5 fold
5 | Cc1nccc2c1[nH]c1cc(OCCNC(=O)[c-]3cccc3)ccc12.[Fe+2].c1cc[cH-]c1 [Compound 32, N-(2-((1-Methyl-9H-pyrido[3,4-b]indol-7-yl)oxy)ethyl)ferrocenecarboxamide] | 6.6 ± 0.8 µM | 2.8 | 18.6 ± 0.2 µM | 15.6 ± 0.3 µM | 0.66 ± 0.01 µM | 0.3 ± 0.09 µM | 9.1 ± 1.4 µM | 2 | 9.9 ± 4 µM | –
6 | Cc1nccc2c1[nH]c1ccc(OCc3cn(C[c-]4cccc4)nn3)cc12.[Fe+2].c1cc[cH-]c1 [Compound 27, 6-((1-(Ferrocenylmethyl)-1H-1,2,3-triazol-4-yl)methoxy)-1-methyl-9H-pyrido[3,4-b]indole] | > 50 µM | < 0.9 | 43 ± 8.6 µM | 17 ± 0.3 µM | 1.09 ± 0.01 µM | 0.31 ± 0.01 µM | 6.8 ± 0.2 µM | 6.3 | 8.1 ± 0.2 µM | activity against MCF-7 relative to 5-FU (fold stronger) [6]: 3–6.5 fold
7 | O=C(C[c-]1cccc1)NCc1nccc2c1[nH]c1ccccc12.[Fe+2].c1cc[cH-]c1 [Compound 34, N-((9H-Pyrido[3,4-b]indol-1-yl)methyl)-2-ferrocenylacetamide] | > 50 µM | >1 | > 50 µM | > 50 µM | 1.11 ± 0.01 µM | 1.34 ± 0.09 µM | > 50 µM | >1 | > 50 µM | –
8 | COc1ccc2c3ccnc(C)c3n(CCNC(=O)[c-]3cccc3)c2c1.[Fe+2].c1cc[cH-]c1 [Compound 33, N-(2-(7-Methoxy-1-methyl-9H-pyrido[3,4-b]indol-9-yl)ethyl)ferrocenecarboxamide] | 16.3 ± 3.2 µM | – | > 50 µM | > 50 µM | 2.04 ± 0.29 µM | 0.4 ± 0.18 µM | 30.5 ± 13.2 µM | >1.7 | > 50 µM | –
9 | 9-((1-(Ferocenylmethyl)-1H-1,2,3-triazol-4-yl)methyl)-7-methoxy-1-methyl-9H-pyrido[3,4-b]indole [Compound 29] | 14.6 ± 3.7 µM | >3.4 | > 50 µM | > 50 µM | 2.91 ± 0.05 µM | 2.12 ± 0.81 µM | > 50 µM | >1 | > 50 µM | –
10 | CCN(CC)CCCC(C)Nc1ccnc2cc(Cl)ccc12 (centres unmarked) [CQ, chloroquine, reference compound] | – | – | – | – | – | – | – | – | – | IC50 [4, 11]: 0.29 ± 0.1 µM; IC50 ([5]; Plasmodium falciparum, 3D7, 72 h): 0.004 ± 0.002 µM
11 | COc1ccc2c(c1)[nH]c1c(C)nccc12 [HAR, harmine] | – | – | – | – | – | – | – | – | – | IC50 ([1]; Homo sapiens, HCT-116, 72 h): 4 ± 0.8 µM; IC50 ([2]; Homo sapiens, HEK-293T): 12.6 ± 0.8 µM; IC50 ([3]; Homo sapiens, HepG2, 72 h): 18.7 ± 0.8 µM; IC50 [4, 11]: > 27.7 µM; IC50 PfDd2 [4, 9]: not active at all; IC50 ([6]; Homo sapiens, MCF7, 72 h): 13.5 ± 1.1 µM; IC50 ([7]; Homo sapiens, SW-620, 72 h): 4.7 ± 0.6 µM
12 | O=c1[nH]cc(F)c(=O)[nH]1 [Compound 5-FU, 5-fluorouracil, reference compound] | – | 1.6 | – | – | – | – | – | 0.3 | – | IC50 ([1]; Homo sapiens, HCT-116, 72 h, MTT, mean ± SD): 5.2 ± 2.8 µM; IC50 ([2]; Homo sapiens, HEK-293T, noncancer cell line, MTT, mean ± SD): 8.1 ± 0.8 µM; IC50 ([3]; Homo sapiens, HepG2, 72 h, MTT, mean ± SD): 5.5 ± 0.6 µM; IC50 ([6]; Homo sapiens, MCF7, 72 h): 23.9 ± 5.7 µM; IC50 ([7]; Homo sapiens, SW-620, 72 h, MTT, mean ± SD): 9.4 ± 0.3 µM
